Experiments:
Format in all cases: cell-based
[1] = system: MDA-MB-231 (breast cancer); assay: Antiproliferative activity (CCK-8 cell viability), MDA-MB-231; settings: Homo sapiens, 72 h, read-out: Antiproliferative activity in cancerous cells, MDA-MB-231 (inhibition of cell growth); for inhibition at 3.3 µM: Compound concentration: 3.3 μM; for inhibition at 10 µM: Compound concentration: 10 μM
Outline: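 Growth inhibition of human MDA-MB-231 breast cancer cells was assessed with a Cell Counting Kit-8. Cells cultured in DMEM plus 10% FBS were seeded at 2,000-5,000 cells/well, treated after attachment, and kept 72 h at 37° C. CCK-8 solution (10 μL) was added for 4 h, and absorbance at 450 nm was compared with DMSO-treated controls.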

[2] = system: HepG2 (liver cancer); assay: Antiproliferative activity (CCK-8 cell viability), HepG2; settings: Homo sapiens, 72 h, read-out: Antiproliferative activity in cancerous cells, HepG2 (inhibition of cell growth); for inhibition at 3.3 µM: Compound concentration: 3.3 μM; for inhibition at 10 µM: Compound concentration: 10 μM
Outline: (§1)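 Growth inhibition graded in bands from percent viability against DMSO vehicle, read as CCK-8 absorbance at 450 nm. Compound tested at 3.3, 10 or 30 μM for 72 h, 37 °C; media contained 10% FBS: DMEM for HepG2/SW480, MEM for HeLa, F-12K for A549.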

[3] = system: A431 (epidermoid carcinoma); assay: Antiproliferative activity (CCK-8 cell viability), A431; settings: Homo sapiens, 72 h, read-out: Antiproliferative activity in cancerous cells, A431 (inhibition of cell growth); for inhibition at 3.3 µM: A-431, Compound concentration: 3.3 μM; for inhibition at 10 µM: A-431, Compound concentration: 10 μM
Outline: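 This growth inhibition assay used A431 cells maintained in Dulbecco's modified Eagle's medium plus 10% fetal bovine serum. Cells were seeded in 96-well plates, treated with compound for 72 h at 37° C., and then given 10 μL CCK-8 solution. After a further 4 h, absorbance was read at 450 nm.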

[4] = system: B16F10 (malignant melanoma); assay: Antiproliferative activity (CCK-8 cell viability), B16F10; settings: Mus musculus, 72 h, read-out: Antiproliferative activity in cancerous cells, B16F10 (inhibition of cell growth); for inhibition at 3.3 µM: B16-F10, Compound concentration: 3.3 μM; for inhibition at 10 µM: B16-F10, Compound concentration: 10 μM
Outline: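 Cell growth inhibition was measured in B16F10 malignant melanoma cells with a Cell Counting Kit-8 viability assay. Cells were maintained in DMEM plus 10% fetal bovine serum, seeded at 2,000-5,000 cells/well in 96-well plates, and treated for 72 h at 37° C. Viability was expressed relative to DMSO-treated vehicle control wells.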

[5] = system: HeLa (cervical cancer); assay: Antiproliferative activity (CCK-8 cell viability), HeLa; settings: Homo sapiens, 72 h, read-out: Antiproliferative activity in cancerous cells, HELA (inhibition of cell growth); for inhibition at 3.3 µM: Compound concentration: 3.3 μM; for inhibition at 10 µM: Compound concentration: 10 μM
Outline: as §1

[6] = system: A549 (lung adenocarcinoma); assay: Antiproliferative activity (CCK-8 cell viability), A549; settings: Homo sapiens, 72 h; for inhibition at 3.3 µM: Compound concentration: 3.3 μM; for inhibition at 3.3 µM / inhibition at 10 µM: read-out: Antiproliferative activity in cancerous cells, A549 (inhibition of cell growth); for inhibition at 10 µM: Compound concentration: 10 μM
Outline: as §1

[7] = system: SW480 (colon cancer); assay: Antiproliferative activity (CCK-8 cell viability), SW480; settings: Homo sapiens, 72 h, read-out: Antiproliferative activity in cancerous cells, SW480 (inhibition of cell growth); for inhibition at 3.3 µM: Compound concentration: 3.3 μM; for inhibition at 10 µM: Compound concentration: 10 μM
Outline: as §1

[8] = system: alpha-smooth muscle actin (α-SMA); assay: Inhibition of TGF-β induced expression of alpha-smooth muscle actin (α-SMA) in CFSC cells (western blot); settings: compound at 10 μM, TGF-β (10 ng/mL), 24 hours, band intensity vs TGF-β only
Outline: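 Values are percent reduction of α-SMA band intensity relative to cells given TGF-β alone, quantified by Western blot densitometry with β-actin probed. Compound was applied at 10 μM alongside 10 ng/mL TGF-β to serum-free CFSC cultures for 24 h at 37 °C.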

SMILES	inhibition at 3.3 µM [1] [%]	inhibition at 10 µM [1] [%]	inhibition at 3.3 µM [2] [%]	inhibition at 10 µM [2] [%]	inhibition at 3.3 µM [3] [%]	inhibition at 10 µM [3] [%]	inhibition at 3.3 µM [4] [%]	inhibition at 10 µM [4] [%]	inhibition at 3.3 µM [5] [%]	inhibition at 10 µM [5] [%]	inhibition at 3.3 µM [6] [%]	inhibition at 10 µM [6] [%]	inhibition at 3.3 µM [7] [%]	inhibition at 10 µM [7] [%]	inhibition at 10 µM [8] [%]	inhibition at 30 µM ([6]; Compound concentration: 30 μM, read-out: Antiproliferative activity in cancerous cells, A549) [%]
CCc1ccc2c(c1)C(CC(=O)O)=C(C)/C2=C/c1ccc(COc2ccccc2)cc1 [B5, (Z)-2-(5-Ethyl-2-methyl-1-(4-(phenoxymethyl)benzylidene)-1H-inden-3-yl)acetic acid]	< 30	≥ 50	≥ 50	≥ 50	≥ 50	≥ 50	≥ 50	≥ 50	< 30	≥ 50	30 to 50	≥ 50	≥ 50	≥ 50	> 80	
CC1=C(CC(=O)O)c2c(F)cccc2/C1=C\c1ccc(COc2ccccc2)cc1 [B6, (Z)-2-(4-Fluoro-2-methyl-1-(4-(phenoxymethyl)benzylidene)-1H-inden-3-yl)-acetic acid]	≥ 50	≥ 50	< 30	≥ 50	< 30	≥ 50	< 30	30 to 50	< 30	≥ 50	30 to 50	30 to 50	< 30	< 30	> 80	
CC1=C(CC(=O)O)c2cc(F)cc(F)c2/C1=C\c1cccc(COc2ccccc2)c1 [B7, (Z)-2-(5,7-Difluoro-2-methyl-1-(3-(phenoxymethyl)benzylidene)-1H-inden-3-yl)-acetic acid]	≥ 50	≥ 50	30 to 50	30 to 50	30 to 50	≥ 50	< 30	30 to 50	≥ 50	30 to 50	< 30	30 to 50	≥ 50	≥ 50	> 80	
COc1ccc2c(c1)/C(=C\c1cccc(COc3ccccc3)c1)C(C)=C2CC(=O)O [B8, (Z)-2-(6-Methoxy-2-methyl-1-(3-(phenoxymethyl)benzylidene)-1H-inden-3-yl)-acetic acid]	< 30	30 to 50	30 to 50	30 to 50	30 to 50	≥ 50	< 30	≥ 50	30 to 50	≥ 50	≥ 50	≥ 50	≥ 50	≥ 50	> 80	
CC1=C(CC(=O)O)c2cccc(F)c2/C1=C\c1cccc(COc2ccccc2)c1 [B9, (Z)-2-(7-Fluoro-2-methyl-1-(3-(phenoxymethyl)benzylidene)-1H-inden-3-yl)-acetic acid]	30 to 50	30 to 50	< 30	< 30	< 30	< 30	< 30	≥ 50	< 30	30 to 50	30 to 50	30 to 50	< 30	< 30	50 to 80	30 to 50
